System: 556581-035-R-J1-PDC complex spheroid growth
Assay: Anticancer human tumor 556581-035-R-J1-PDC patient-derived ovarian carcinoma cell line growth inhibition [AhR]
Settings: for IC50: curve of first compound; for viability, T/C: stronger effect = lower value; active means viability on the fitted dose curve at most 10% of control; inactive means the rest
How it was run: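 Agents were dosed in half-log steps down from roughly clinical Cmax, or from 10 microM where Cmax was unknown, alone and with AhR antagonists. Read-out: percent test/control growth of tumor spheroids containing HUVEC and MSC stromal cells.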

[1] = second compound 0.1 µM, first compound 0.0316 µM
[2] = second compound 0.1 µM, first compound 0.1 µM
[3] = second compound 0.316 µM, first compound 0.0316 µM
[4] = second compound 0.316 µM, first compound 0.1 µM
[5] = second compound 1 µM, first compound 0.0316 µM
[6] = second compound 1 µM, first compound 0.1 µM
[7] = second compound 3.16 µM, first compound 0.0316 µM
[8] = second compound 3.16 µM, first compound 0.1 µM
[9] = second compound 10 µM, first compound 0.0316 µM
[10] = second compound 10 µM, first compound 0.1 µM
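Wherever viability, T/C is given: compound exposure lasted 7 days; 100% = DMSO vehicle control growth.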

Cn1ncnc1C1c2n[nH]c(=O)c3cc(F)cc(c23)NC1c1ccc(F)cc1 (stereo not given) + CC(CO)NC(=O)c1cc(-c2ccc(Cl)cc2)nn(-c2cnn(C)c2)c1=O
inactive: viability, T/C (second compound 0.1 µM, first compound 0.000316 µM) 109% | viability, T/C (second compound 0.1 µM, first compound 0.001 µM) 104% | viability, T/C (second compound 0.1 µM, first compound 0.00316 µM) 101% | viability, T/C (second compound 0.1 µM, first compound 0.01 µM) 103% | viability, T/C [1] 97.3% | viability, T/C [2] 99.7% | viability, T/C (second compound 0.316 µM, first compound 0.000316 µM) 97% | viability, T/C (second compound 0.316 µM, first compound 0.001 µM) 111% | viability, T/C (second compound 0.316 µM, first compound 0.00316 µM) 137% | viability, T/C (second compound 0.316 µM, first compound 0.01 µM) 113% | viability, T/C [3] 99.3% | viability, T/C [4] 93.4% | viability, T/C (second compound 1 µM, first compound 0.000316 µM) 112% | viability, T/C (second compound 1 µM, first compound 0.001 µM) 105% | viability, T/C (second compound 1 µM, first compound 0.00316 µM) 113% | viability, T/C (second compound 1 µM, first compound 0.01 µM) 105% | viability, T/C [5] 98.7% | viability, T/C [6] 99.6% | viability, T/C (second compound 3.16 µM, first compound 0.000316 µM) 114% | viability, T/C (second compound 3.16 µM, first compound 0.001 µM) 110% | viability, T/C (second compound 3.16 µM, first compound 0.00316 µM) 105% | viability, T/C (second compound 3.16 µM, first compound 0.01 µM) 93.3% | viability, T/C [7] 101% | viability, T/C [8] 89.6% | viability, T/C (second compound 10 µM, first compound 0.000316 µM) 105% | viability, T/C (second compound 10 µM, first compound 0.001 µM) 110% | viability, T/C (second compound 10 µM, first compound 0.00316 µM) 110% | viability, T/C (second compound 10 µM, first compound 0.01 µM) 112% | viability, T/C [9] 92.6% | viability, T/C [10] 97.2%
> 0.1 µM: IC50 (second compound 0.1 µM) | IC50 (second compound 0.316 µM) | IC50 (second compound 1 µM) | IC50 (second compound 3.16 µM) | IC50 (second compound 10 µM)

NS(=O)(=O)OCC1CC(n2ccc3c(NC4CCc5ccccc54)ncnc32)CC1O (stereo not given) + CC(CO)NC(=O)c1cc(-c2ccc(Cl)cc2)nn(-c2cnn(C)c2)c1=O
> 10 µM: IC50 (second compound 0.1 µM) | IC50 (second compound 0.316 µM) | IC50 (second compound 1 µM) | IC50 (second compound 3.16 µM) | IC50 (second compound 10 µM)
inactive: viability, T/C [1] 98.2% | viability, T/C [2] 108% | viability, T/C (second compound 0.1 µM, first compound 0.316 µM) 112% | viability, T/C (second compound 0.1 µM, first compound 1 µM) 107% | viability, T/C (second compound 0.1 µM, first compound 3.16 µM) 107% | viability, T/C (second compound 0.1 µM, first compound 10 µM) 86.9% | viability, T/C [3] 107% | viability, T/C [4] 121% | viability, T/C (second compound 0.316 µM, first compound 0.316 µM) 97.1% | viability, T/C (second compound 0.316 µM, first compound 1 µM) 104% | viability, T/C (second compound 0.316 µM, first compound 3.16 µM) 109% | viability, T/C (second compound 0.316 µM, first compound 10 µM) 78.9% | viability, T/C [5] 106% | viability, T/C [6] 118% | viability, T/C (second compound 1 µM, first compound 0.316 µM) 104% | viability, T/C (second compound 1 µM, first compound 1 µM) 111% | viability, T/C (second compound 1 µM, first compound 3.16 µM) 88.3% | viability, T/C (second compound 1 µM, first compound 10 µM) 86.7% | viability, T/C [7] 101% | viability, T/C [8] 111% | viability, T/C (second compound 3.16 µM, first compound 0.316 µM) 103% | viability, T/C (second compound 3.16 µM, first compound 1 µM) 106% | viability, T/C (second compound 3.16 µM, first compound 3.16 µM) 99.8% | viability, T/C (second compound 3.16 µM, first compound 10 µM) 89.5% | viability, T/C [9] 95.8% | viability, T/C [10] 109% | viability, T/C (second compound 10 µM, first compound 0.316 µM) 115% | viability, T/C (second compound 10 µM, first compound 1 µM) 109% | viability, T/C (second compound 10 µM, first compound 3.16 µM) 121% | viability, T/C (second compound 10 µM, first compound 10 µM) 96.7%

Reference: PubChem BioAssay AID1918999 (Molecular Pharmacology Branch, DTP, NCI, 2023)
